Assays:
Assay type in all cases: in vivo
[1] = tested on: fatty liver of the SD rats; assay: Pathological sections and grading of fatty liver of SD rats; conditions: compounds 80 mg/kg, Sim 10 mg/kg, OCA 10 mg/kg
Experimental: (§1) 500 g of lard oil was taken, placed in a container, and heated to melt. When the temperature rose to 100° C., it was added with 200 g of cholesterol to dissolve completely, and then further added with 20 g of propylthiouracil. The resulted mixture was stirred well, and added with 500 ml of Tween 80 after dissolution, resulting in an oil phase. At the same time, 600 mL of distilled water and 400 mL of 1,2-propanediol were taken and heated to 60° C. in a water bath, then were added with 40 g of sodium deoxycholate. The resulted mixture was stirred well until realizing complete dissolution, so as to give an aqueous phase. The aqueous phase was added into the oil phase and mixed well to give a lipid emulsion. The lipid emulsion was heated in a water bath of 37° C. before intragastric administration to animals.
(§2) An appropriate amount of pharmaceutical was weighed, added with 0.5% CMC-Na, and mixed homogeneously by grinding. There are groups for Compound 01 (80 mg/kg), Compound 02 (80 mg/kg), Compound 03 (80 mg/kg), Compound 04 (80 mg/kg), Compound 05 (80 mg/kg), Compound 06 (80 mg)/kg), Compound 07 (80 mg/kg), Compound 08 (80 mg/kg), Compound 09 (80 mg/kg), Compound 10 (80 mg/kg), Compound 11 (80 mg/kg), Compound 12 (80 mg/kg), Compound 13 (80 mg/kg), Compound 14 (80 mg/kg), Compound 15 (80 mg/kg), Compound 16 (80 mg/kg), Compound 17 (80 mg/kg), Compound 18 (80 mg/kg), Compound 19 (80 mg/kg), Compound 20 (80 mg/kg), Compound 21 (80 mg/kg), and Compound 22 (80 mg/kg).
(§3) Male SD rats weighing 180-200 g were fed adaptively for 7 days. Based on body weight, 10 animals were used as control and the remaining animals were intragastrically administered with the lipid emulsion every day, 1 ml/100 g body weight for 14 days. After fasting for 12 hours, 1 mL of blood was collected from the orbits of the animals, and was determined by Hitachi Automatic Biochemical Analyzer 7080 for serum cholesterol (CHO), triglyceride (TG), low density lipoprotein (LDL-C) and high density lipoprotein (HDL-C).
(§4) The modeled rats were continued with the intragastric administration of the lipid emulsion. At the same time, the pharmaceutical-administered groups were administrated with a corresponding dose of pharmaceuticals, while the Model group was administrated with an equal volume of solvent. The pharmaceutical-administered groups were administrated with the lipid emulsion in the morning, and with the pharmaceuticals in the afternoon. The animals were measured for the body weight once a week, and were observed. After 14 days of continuous administration, 1 mL of blood was collected from the orbits, and was determined for the contents of triglyceride, cholesterol, low density lipoprotein and high density lipoprotein in blood serum.

[2] = tested on: Fatty Liver Diseases of SD Rats; assay: Liver functions of lipid-emulsion SD rats after administration for 4 weeks; set-up: unit not given here; conditions: compounds 80 mg/kg, Obeticholic Acid 10 mg/kg
[3] = tested on: Fatty Liver Diseases of SD Rats; assay: Blood serum lipids in SD rats given lipid emulsion (fatty liver model); set-up: unit not given here; conditions: blood serum after 14 days of continuous administration; compounds 80 mg/kg, Obeticholic Acid 10 mg/kg, intragastric; lipid emulsion continued
Experimental: as §1, §2, §3, §4

[4] = tested on: ob/ob mice; assay: Weight loss experiment in ob/ob mice; conditions: orlistat 40 mg/kg, other pharmaceuticals 80 mg/kg intragastric, x ± s, n = 6, in g (unit assumed)
Text: […] ob/ob mice, male, 18-20 g of body weight, fed adaptively for one week before use. The mice were randomly divided into Control group, Model group, Orlistat group, Compound 13 group and Compound 14 group, with 6 mice in each group.
(§5) appropriate amounts of orlistat, Compound 13 and Compound 14 were weighed respectively, added with 0.5% CMC-Na and grinded to dissolve.
After feeding for one week, the mice were intragastrically administrated with the pharmaceuticals except the mice of Control group. The dose was 40 mg/kg body weight for orlistat, 80 mg/kg for the other pharmaceuticals. The body weight of the mice was weighed every week during the experiment which lasted for 28 days.

[5] = tested on: nutritive obesity C57 mice; assay: Weight loss experiment in nutritive obesity C57 mice; set-up: key to body weight of mice: body weight in g; conditions: high-fat diet, orlistat 40 mg/kg, Compounds 13 and 14 80 mg/kg intragastric, x ± s, n = 6, in g (unit assumed)
Text: C57 mice, male, 18-20 g of body weight. The mice were randomly divided into Control group, Model group, Orlistat group, Compound 13 group and Compound 14 group, with 6 mice in each group.
as §5
The mice in Control group were fed with normal diet, and the other mice were fed with high-fat diet. All of the mice had free access to water. After one week of feeding, the pharmaceuticals were intragastrically administrated. The dose was 40 mg/kg body weight for orlistat, 80 mg/kg for Compounds 13 and 14. The body weight of the mice was weighed every week during the experiment which lasted for 28 days.

| Structure (SMILES) | Pathological grading: Steatotic hepatocytes ([1]; animal 1) | Pathological grading: Steatotic hepatocytes ([1]; animal 2) | Pathological grading: Steatotic hepatocytes ([1]; animal 3) | Pathological grading: Steatotic hepatocytes ([1]; animal 4) | Pathological grading: Steatotic hepatocytes ([1]; animal 5) | ALP [2] | ALT [2] | AST [2] | TBIL [2] | CHO (serum cholesterol) [3] | HDL-C (high density lipoprotein) [3] | LDL-C (low density lipoprotein) [3] | TG (triglyceride) [3] | further results |
| --- | --- | --- | --- | --- | --- | --- | --- | --- | --- | --- | --- | --- | --- | --- |
| CC(=O)c1ccc(NC(=O)C(C)(C)CCCOc2cc(C)ccc2C)cc1 [Compound 02] | + (25-45% of hepatocytes undergoing steatosis) | + (25-45% of hepatocytes undergoing steatosis) | ++ (45-65% of hepatocytes undergoing steatosis) | + (25-45% of hepatocytes undergoing steatosis) | ++ (45-65% of hepatocytes undergoing steatosis) | 1001.52 ± 273.34 | 62.52 ± 13.24 | 187.00 ± 36.44 | 1.98 ± 0.81 | 4.29 ± 0.65 | 1.74 ± 0.29 | 2.18 ± 0.71 | 0.51 ± 0.19 |  |
| Cc1ccc(C)c(OCCCC(C)(C)C(=O)Nc2ccc(C(=O)CNC(=O)c3cccnc3)cc2)c1 [Compound 12] | 0 |  | 0 | 0 |  | 994.50 ± 150.68 | 54.00 ± 5.72 | 137.75 ± 31.74 | 3.25 ± 2.11 | 4.03 ± 0.47 | 1.92 ± 0.11 | 2.16 ± 0.05 | 0.33 ± 0.05 | Pathological grading: Infiltration of inflammatory cells ([1]; animal 1): 0; Pathological grading: Infiltration of inflammatory cells ([1]; animal 3): 0; Pathological grading: Infiltration of inflammatory cells ([1]; animal 5): 0 |
| Cc1ccc(C)c(OCCCC(C)(C)C(=O)NCC(=O)c2ccc(O)c(O)c2)c1 [Compound 21] | + (25-45% of hepatocytes undergoing steatosis) | 0 | + (25-45% of hepatocytes undergoing steatosis) | + (25-45% of hepatocytes undergoing steatosis) | + (25-45% of hepatocytes undergoing steatosis) | 1074.00 ± 181.32 | 65.6 ± 27.20 | 184.40 ± 18.68 | 3.23 ± 1.35 | 4.37 ± 0.62 | 1.99 ± 0.44 | 2.09 ± 0.68 | 0.80 ± 0.13 | Pathological grading: Infiltration of inflammatory cells ([1]; animal 4): 0 |
| Cc1ccc(C)c(OCCCC(C)(C)C(=O)NCC(=O)c2ccc(OC(=O)c3cccnc3)c(O)c2)c1 [Compound 22] | + (25-45% of hepatocytes undergoing steatosis) | + (25-45% of hepatocytes undergoing steatosis) | ++ (45-65% of hepatocytes undergoing steatosis) | + (25-45% of hepatocytes undergoing steatosis) | + (25-45% of hepatocytes undergoing steatosis) | 874.33 ± 251.66 | 58.00 ± 2.55 | 180.60 ± 27.19 | 2.97 ± 1.53 | 4.36 ± 1.08 | 1.47 ± 0.51 | 2.87 ± 1.25 | 0.57 ± 0.27 |  |
| CC[C@H]1[C@@H](O)[C@@H]2[C@H](CC[C@]3(C)[C@@H]([C@H](C)CCC(=O)O)CC[C@@H]23)[C@@]2(C)CC[C@@H](O)C[C@@H]12 [Obeticholic Acid, Obeticholic acid, reference compound] | ++ (45-65% of hepatocytes undergoing steatosis) | ++ (45-65% of hepatocytes undergoing steatosis) | ++ (45-65% of hepatocytes undergoing steatosis) | +++ (65-85% or more of hepatocytes undergoing steatosis) | ++ (45-65% of hepatocytes undergoing steatosis) | 999.60 ± 354.29 | 136.40 ± 62.68 | 248.20 ± 156.61 | 4.06 ± 1.40 | 4.74 ± 0.34 | 1.68 ± 0.22 | 2.85 ± 1.00 | 0.52 ± 0.06 |  |
| CCCCCCCCCCC[C@@H](C[C@@H]1OC(=O)[C@H]1CCCCCC)OC(=O)[C@H](CC(C)C)NC=O [Orlistat, reference compound] |  |  |  |  |  |  |  |  |  |  |  |  |  | body weight of ob/ob mice ([4]; Experiment Day 0): 20.53 ± 0.50; body weight of ob/ob mice ([4]; Experiment Day 7): 22.82 ± 1.79; body weight of ob/ob mice ([4]; Experiment Day 14): 23.98 ± 1.85; body weight of ob/ob mice ([4]; Experiment Day 21): 26.86 ± 1.99; body weight of ob/ob mice ([4]; Experiment Day 28): 31.23 ± 2.31; body weight of mice ([5]; Experiment Day 0): 18.28 ± 0.65; body weight of mice ([5]; Experiment Day 7): 20.29 ± 0.63; body weight of mice ([5]; Experiment Day 14): 21.39 ± 0.70; body weight of mice ([5]; Experiment Day 21): 22.51 ± 0.73; body weight of mice ([5]; Experiment Day 28): 24.47 ± 0.79 |

Source: US10647673B2, “Acetophenone compound, preparation method thereof, and application thereof in fatty liver prevention and treatment” (Nanjing Bioenergy Medicine Science & Technology Co., Ltd., priority 2017, dated 2020)
